The record followed here is patent US12642270B2, “Substituted thiophene carboxamides, thiophene carboxylic acids and derivatives thereof” (Bayer Aktiengesellschaft, priority 2019, dated 2026).

The nature of the data set: Log P by HPLC on reversed phase columns (EEC directive 79/831 Annex V.A8). In kind it is physicochemical. Particulars: LogP method [a]; compounds of formula (I), Table 1.1. The method in brief:
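Values come from retention times calibrated against alkan-2-ones (3–16 carbons) by linear interpolation, using reversed-phase LC-UV per EEC directive 79/831 Annex V.A8. Acetonitrile gradient 10–95% with 0.1% formic acid [a], 0.001 M ammonium acetate [b] or 0.1% phosphoric acid [c]; several values within one method separated by "+".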

Consider `CCOC(=O)C1(NC(=O)c2cc(Br)c(Cl)s2)CCC1` [1.0439], for which the LogP is 3.44^[a].

Take `COC(=O)C(CC(F)F)NC(=O)c1sc(Br)c(Br)c1F` (stereo not drawn) [1.0440]: the LogP was 3.23^[a].

As to `CCOC(=O)C(NC(=O)c1cc(Cl)c(Br)s1)C(C)C` (stereo not drawn) [1.0441], the LogP was 3.85^[a].

As to `COC(=O)C(CC(F)F)NC(=O)c1cc(Cl)c(Br)s1` (stereo not drawn) [1.0442], the LogP was 2.96^[a].

In the case of `CCOC(=O)C(Cc1ccccc1)NC(=O)c1cc(Cl)c(Br)s1` (stereo not drawn) [1.0443], the LogP is 4.01^[a].

As to `CCOC(=O)C(CC(C)C)NC(=O)c1cc(Cl)c(Br)s1` (stereo not drawn) [1.0444], the LogP was 4.19^[a].

Consider `CCOC(=O)C1(CNC(=O)c2sc(Br)c(Br)c2F)CC1` [1.0445], for which the LogP was 3.86^[a].

`CCOC(=O)C1(NC(=O)c2sc(Br)c(Br)c2F)CCCC1` [1.0446]: the LogP was 4.21^[a].

On to `COC(=O)C1(NC(=O)c2sc(Br)c(Br)c2F)CCOCC1` [1.0447], for which the LogP is 2.77^[a].

As to `COC(=O)CC(C)NC(=O)c1sc(Br)c(Br)c1F` (stereo not drawn) [1.0448], the LogP was 3.14^[a].

On to `CCOC(=O)CNC(=O)c1sc(Br)c(Br)c1F` [1.0449], for which the LogP is 2.97^[a].

Regarding `CCOC(=O)CCNC(=O)c1sc(Br)c(Br)c1F` [1.0450], the LogP was 3.11^[a].

As for `CCOC(=O)C(NC(=O)c1sc(Br)c(Br)c1F)C(C)C` (stereo not drawn) [1.0451], the LogP is 2.63^[a].

For `CCOC(=O)C1(NC(=O)c2cc(Cl)c(Br)s2)CCC1` [1.0452], the LogP is 3.29^[a].

For the molecule `CCOC(=O)CCNC(=O)c1cc(Br)c(Cl)s1` [1.0453], the LogP was 2.80^[a].

Regarding `CCOC(=O)C1(NC(=O)c2cc(Cl)c(Br)s2)CC1` [1.0454], the LogP was 2.80^[a].

For the molecule `O=C(NC1(C(=O)O)CC1)c1cc(Cl)c(Br)s1` [1.0455], the LogP was 1.99^[a].

For the molecule `CCOC(=O)CCNC(=O)c1cc(F)c(Br)s1` [1.0456], the LogP was 2.47^[a].

Turning to `CCOC(=O)CNC(=O)c1cc(Br)c(Cl)s1` [1.0457], the LogP is 2.63^[a].

`CCOC(=O)C1(NC(=O)c2cc(Br)c(Cl)s2)CC1` [1.0458]: the LogP is 3.43^[a].

Turning to `CCOC(=O)C1(NC(=O)c2cc(F)c(Br)s2)CCC1` [1.0459], the LogP is 2.98^[a].

Consider `CCOC(=O)C1(NC(=O)c2cc(F)c(Br)s2)CC1` [1.0460], for which the LogP is 2.51^[a].

`CCOC(=O)CNC(=O)c1cc(Cl)c(Br)s1` [1.0461]: the LogP is 2.59^[a].

For the molecule `CCOC(=O)CCNC(=O)c1cc(Cl)c(Br)s1` [1.0462], the LogP is 2.77^[a].

As to `CCOC(=O)C1(NC(=O)c2sc(C)c(Br)c2F)CC1` [1.0463], the LogP was 2.80^[a].

Consider `CCOC(=O)CNC(=O)c1cc(C)c(Cl)s1` [1.0464], for which the LogP is 2.33^[a].

On to `CCOC(=O)CCNC(=O)c1cc(C)c(Cl)s1` [1.0465], for which the LogP was 2.49^[a].

Regarding `CCOC(=O)C1(NC(=O)c2cc(C)c(Cl)s2)CC1` [1.0466], the LogP is 2.52^[a].

`CCOC(=O)CNC(=O)c1cc(F)c(Br)s1` [1.0467]: the LogP was 2.28^[a].

As for `CCOC(=O)C1(NC(=O)c2cc(I)c(I)s2)CC1` [1.0468], the LogP is 2.98^[a].

On to `O=C(NC1(C(=O)O)CC1)c1cc(I)c(I)s1` [1.0469], for which the LogP is 2.08^[a].

As for `NC(=O)C1(NC(=O)C2(NC(=O)c3cc(I)c(I)s3)CC2)CC1` [1.0470], the LogP was 1.88^[a].

With `O=C(O)CNC(=O)c1cc(I)c(I)s1` [1.0471], the LogP is 1.87^[a].

`COC(=O)C(Cc1ccccc1)NC(=O)c1sc(Br)c(Br)c1F` (stereo not drawn) [1.0472]: the LogP was 4.06^[a].

As to `CSCCC(NC(=O)c1sc(Br)c(Br)c1F)C(=O)O` (stereo not drawn) [1.0473], the LogP was 2.75^[a].

As for `O=C(O)CNC(=O)CNC(=O)c1cc(I)c(I)s1` [1.0474], the LogP was 1.63^[a].

As to `NC(=O)C1(NC(=O)c2cc(I)c(I)s2)CC1` [1.0475], the LogP is 1.87^[a].

Consider `CCOC(=O)C1(NC(=O)C2(NC(=O)c3cc(I)c(I)s3)CC2)CC1` [1.0476], for which the LogP was 2.59^[a].

With `CSC(=O)C1(NC(=O)c2cc(I)c(I)s2)CC1` [1.0477], the LogP is 3.04^[a].

Consider `O=C(NC1(C(=O)NC2(C(=O)O)CC2)CC1)c1cc(I)c(I)s1` [1.0478], for which the LogP is 1.53^[a].

On to `CCOC(=O)C1(NC(=S)c2cc(Cl)c(Br)s2)CC1` [1.0479], for which the LogP is 3.92^[a].

With `CCSC(=O)C1(NC(=O)c2cc(I)c(I)s2)CC1` [1.0480], the LogP was 3.39^[a].

For the molecule `CCOC(=O)CCNC(=O)c1sc(C)c(Br)c1F` [1.0481], the LogP is 2.78^[a].

For the molecule `CCOC(=O)C(C)NC(=O)c1sc(Cl)c(Br)c1Br` (stereo not drawn) [1.0482], the LogP was 3.91^[a].

`COC(=O)C1(NC(=O)c2sc(Cl)c(Br)c2Br)CC1` [1.0483]: the LogP was 3.08^[a].

For the molecule `CCOC(=O)CNC(=S)c1sc(Cl)c(Br)c1Cl` [1.0484], the LogP is 4.59^[a].

For `COC(=O)CNC(=S)c1sc(Cl)c(Br)c1Cl` [1.0485], the LogP is 4.08^[a].

With `O=C(NC1(C(=O)O)CCC1)c1sc(Cl)c(Br)c1Cl` [1.0486], the LogP was 2.95^[a].

Consider `O=C(NC1(C(=O)O)COC1)c1sc(Br)c(Br)c1F` [1.0489], for which the LogP is 1.98^[a].

In the case of `O=C(NC1(C(=O)O)CCC1)c1sc(Br)c(Br)c1Cl` [1.0490], the LogP was 2.92^[a].

In the case of `CCOC(=O)CN(O)C(=O)c1sc(Cl)c(Cl)c1Br` [1.0491], the LogP was 2.95^[a].

In the case of `COC(=O)CNC(=O)c1sc(Br)c(Br)c1Cl` [1.0492], the LogP is 2.92^[a].

For `CCOC(=O)CNC(=S)c1sc(Br)c(Br)c1Cl` [1.0493], the LogP is 4.58^[a].

Take `O=C(O)CNC(=O)c1sc(Br)c(Br)c1Cl` [1.0494]: the LogP was 2.28^[a].

Regarding `CCOC(=O)C(NC(=O)c1sc(Br)c(Br)c1F)C1CC1` (stereo not drawn) [1.0495], the LogP was 3.98^[a].

For the molecule `COC(=O)C(NC(=S)c1sc(Br)c(Br)c1F)C1CC1` (stereo not drawn) [1.0496], the LogP is 4.62^[a].

`COC(=O)C(Cc1ccccc1)NC(=S)c1sc(Br)c(Br)c1F` (stereo not drawn) [1.0497]: the LogP was 5.32^[a].

As to `COC(=O)CC[C@H](NC(=O)c1sc(Br)c(Br)c1Cl)C(=O)OC` [1.0498], the LogP was 3.40^[a].

Regarding `COC(=O)CNC(=S)c1sc(Cl)c(Cl)c1I` [1.0499], the LogP is 4.12^[a].

Take `O=C(O)CNC(=S)c1sc(Cl)c(Br)c1Cl` [1.0500]: the LogP is 3.10^[a].

Take `CCOC(=O)C(NC(=O)c1sc(Br)c(C(F)F)c1Br)C(C)C` (stereo not drawn) [1.0502]: the LogP was 4.21^[a].

On to `COC(=O)C(NC(=O)c1sc(Br)c(C(F)F)c1Br)C1CC1` (stereo not drawn) [1.0503], for which the LogP was 3.37^[a].

Consider `CCOC(=O)C(Cc1ccccc1)NC(=O)c1sc(Br)c(C(F)F)c1Br` (stereo not drawn) [1.0504], for which the LogP was 4.40^[a].

Consider `COC(=O)C1(NC(=O)c2sc(Br)c(C(F)F)c2Br)CCC1` [1.0505], for which the LogP was 3.25^[a].

Take `CCOC(=O)C1(NC(=O)c2sc(Br)c(C(F)F)c2Br)CCC1` [1.0506]: the LogP was 3.66^[a].

As for `CCCOC(=O)C1(NC(=O)c2sc(Br)c(C(F)F)c2Br)CC1` [1.0507], the LogP is 3.42^[a].
